Data: article PMC12747936, “Rhamnose alleviates the proinflammatory response during endotoxemia via the CEACAM1/LGALS9-p38 axis” (Acta Biochimica et Biophysica Sinica, 2025)

Columns and labels:
[1] = target: T1, CEACAM1 (BMDMs) (Mus musculus, UniProt P31809); assay: CETSA and DARTS, western blot; assay type: biochemical; conditions: BMDM lysate; CETSA 100 μM rhamnose, 2 h, 37-67°C; DARTS with pronase 1:1000, TNC buffer pH 8.0
T1 construct: endogenous protein in lysate of murine bone marrow-derived macrophages; band 150-250 kDa region discussed
T1 sequence (P31809 35-521): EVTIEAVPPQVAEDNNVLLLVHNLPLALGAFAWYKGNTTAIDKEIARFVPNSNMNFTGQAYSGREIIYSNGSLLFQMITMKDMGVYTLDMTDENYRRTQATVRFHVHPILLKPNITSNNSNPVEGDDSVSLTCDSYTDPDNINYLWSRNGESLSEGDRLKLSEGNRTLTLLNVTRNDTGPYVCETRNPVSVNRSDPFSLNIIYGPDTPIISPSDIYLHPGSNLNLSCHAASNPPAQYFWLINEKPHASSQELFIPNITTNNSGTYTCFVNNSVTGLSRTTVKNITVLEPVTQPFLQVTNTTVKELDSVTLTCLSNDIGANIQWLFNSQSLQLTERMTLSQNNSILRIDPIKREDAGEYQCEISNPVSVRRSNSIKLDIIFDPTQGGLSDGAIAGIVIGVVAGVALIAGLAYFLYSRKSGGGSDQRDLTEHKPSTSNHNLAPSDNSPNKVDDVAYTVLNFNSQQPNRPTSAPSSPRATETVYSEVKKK

[2] = target: T2, CEACAM1 (THP-1-dMs) (Homo sapiens, UniProt P13688); assay: CETSA and DARTS, western blot; assay type: biochemical; conditions: THP-1-dM lysate; CETSA 100 μM rhamnose, 2 h, 37-67°C; DARTS with pronase 1:1000, TNC buffer pH 8.0
T2 construct: endogenous protein in lysate of PMA-differentiated THP-1 macrophages
T2 sequence (P13688 35-526): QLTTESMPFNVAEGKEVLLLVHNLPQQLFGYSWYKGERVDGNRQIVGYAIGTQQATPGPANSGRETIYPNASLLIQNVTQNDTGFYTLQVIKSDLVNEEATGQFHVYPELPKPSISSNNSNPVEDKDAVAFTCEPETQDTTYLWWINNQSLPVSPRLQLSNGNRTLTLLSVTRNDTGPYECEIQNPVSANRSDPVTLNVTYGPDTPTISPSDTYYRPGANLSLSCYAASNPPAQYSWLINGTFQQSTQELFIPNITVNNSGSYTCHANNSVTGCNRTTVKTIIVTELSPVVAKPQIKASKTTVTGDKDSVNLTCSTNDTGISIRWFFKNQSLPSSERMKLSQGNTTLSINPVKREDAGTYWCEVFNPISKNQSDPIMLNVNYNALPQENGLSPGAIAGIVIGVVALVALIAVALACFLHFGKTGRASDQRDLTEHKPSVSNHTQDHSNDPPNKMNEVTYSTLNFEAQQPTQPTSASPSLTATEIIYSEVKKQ

## C[C@@H]1OC(O)[C@H](O)[C@H](O)[C@H]1O (some centres unmarked) [rhamnose]
[1]
  CETSA and DARTS, western blot: CETSA also demonstrated that rhamnose reduced the degradation rate of CEACAM1 in heat-denatured BMDMs
[2]
  CETSA and DARTS, western blot: rhamnose treatment increased the resistance of the CEACAM1 protein to protease hydrolysis
